Legend:
MOLT-4 cells = assay: RNA sequencing of kinase transcript levels; type: cell-based, H. sapiens; conditions: MOLT-4, 1 μM
Experimental: With long treatment times (>8 h), it is difficult to distinguish direct degradation of targets from down-regulation caused by downstream or secondary effects.
MOLT-4 cells were seeded into 24 T25 flasks with 10 mL of culture at 10^6 cells/mL prior to compound treatment. […] Cells were harvested using CellStripper™ Dissociation reagent (Corning®), washed twice with PBS, and followed by snap freezing in liquid nitrogen. Total RNA was isolated from cell pellets using the RNeasy® Mini Kit (Qiagen®) following the manufacturer's directions. For quality control, RNA concentration and rRNA ratio (28S/18S) were measured using an Agilent 2100 Bioanalyzer. Samples were submitted to BGI Group for RNA-seq library preparation and Next Generation Sequencing using the BGISEQ-500 platform producing 50 base-pair single-end reads. Sequencing reads were aligned to the human genome (BSgenome.Hsapiens.UCSC.hg19 Bioconductor package, using splicedAlignment=FALSE) and quantified at the level of genes (TxDb.Hsapiens.UCSC.hg19.knownGene Bioconductor package) using the QuasR package with default parameters (Gaidatzis et al., Bioinformatics 31(7):1130-1132 (2015)). Expressed genes were identified using the edgeR Bioconductor package (Robinson et al., Bioinformatics 26(1):139-140 (2010)).

[1] = test system: extended human kinome (kinase-like proteins); assay: Whole cell quantitative proteomics: extended kinome hits; conditions: Accession Q16875-4; experiment wp117
[2] = type: cell-based, H. sapiens; conditions: MOLT-4, 1 μM, 5 h, 5 μM CB-5083
[3] = target: protein kinases (human kinome) (Homo sapiens, UniProt Q16760); type: cell-based; conditions: protein DGKD (Q16760-1); experiment wp045; down
[4] = target: extended human kinome (kinase-like proteins) (Homo sapiens, UniProt Q9NYY8); assay: Whole cell quantitative proteomics: extended kinome hits; conditions: Accession Q9NYY8; experiment wp160; 1 hr
[5] = target: T1, protein kinases (human kinome) (Homo sapiens, UniProt P29323); type: cell-based
T1 sequence (P29323 19-1055): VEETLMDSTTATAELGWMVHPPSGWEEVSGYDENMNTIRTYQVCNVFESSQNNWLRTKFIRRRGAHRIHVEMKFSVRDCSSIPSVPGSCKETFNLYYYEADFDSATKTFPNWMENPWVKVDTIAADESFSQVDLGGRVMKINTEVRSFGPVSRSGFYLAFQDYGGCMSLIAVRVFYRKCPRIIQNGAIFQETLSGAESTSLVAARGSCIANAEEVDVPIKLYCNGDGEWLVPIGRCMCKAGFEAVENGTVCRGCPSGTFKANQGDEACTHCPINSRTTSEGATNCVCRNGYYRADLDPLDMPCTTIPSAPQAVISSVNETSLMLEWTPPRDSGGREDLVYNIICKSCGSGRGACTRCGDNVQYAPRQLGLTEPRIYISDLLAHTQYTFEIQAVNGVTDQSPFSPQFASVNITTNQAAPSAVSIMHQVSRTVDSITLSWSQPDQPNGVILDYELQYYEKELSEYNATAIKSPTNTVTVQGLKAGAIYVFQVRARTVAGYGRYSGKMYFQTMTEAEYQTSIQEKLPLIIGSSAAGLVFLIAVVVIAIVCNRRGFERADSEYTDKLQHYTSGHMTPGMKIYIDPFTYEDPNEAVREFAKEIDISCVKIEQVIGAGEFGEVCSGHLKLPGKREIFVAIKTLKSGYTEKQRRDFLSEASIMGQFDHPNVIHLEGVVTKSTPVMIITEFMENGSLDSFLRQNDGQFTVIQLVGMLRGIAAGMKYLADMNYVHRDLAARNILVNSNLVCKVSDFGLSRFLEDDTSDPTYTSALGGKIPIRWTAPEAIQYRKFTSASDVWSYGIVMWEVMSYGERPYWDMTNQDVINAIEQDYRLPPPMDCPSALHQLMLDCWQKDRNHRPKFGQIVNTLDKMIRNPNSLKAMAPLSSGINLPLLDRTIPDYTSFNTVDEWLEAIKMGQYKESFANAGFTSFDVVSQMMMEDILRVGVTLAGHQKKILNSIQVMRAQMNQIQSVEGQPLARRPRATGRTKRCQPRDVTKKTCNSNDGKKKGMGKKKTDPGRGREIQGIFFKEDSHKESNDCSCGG

[6] = target: protein kinases (human kinome) (Homo sapiens, UniProt A2RU49); type: cell-based; conditions: protein HYKK (A2RU49); experiment wp117; down
protein kinases (human kinome) (Homo sapiens, UniProt A2RU49), sequence (A2RU49 whole entry): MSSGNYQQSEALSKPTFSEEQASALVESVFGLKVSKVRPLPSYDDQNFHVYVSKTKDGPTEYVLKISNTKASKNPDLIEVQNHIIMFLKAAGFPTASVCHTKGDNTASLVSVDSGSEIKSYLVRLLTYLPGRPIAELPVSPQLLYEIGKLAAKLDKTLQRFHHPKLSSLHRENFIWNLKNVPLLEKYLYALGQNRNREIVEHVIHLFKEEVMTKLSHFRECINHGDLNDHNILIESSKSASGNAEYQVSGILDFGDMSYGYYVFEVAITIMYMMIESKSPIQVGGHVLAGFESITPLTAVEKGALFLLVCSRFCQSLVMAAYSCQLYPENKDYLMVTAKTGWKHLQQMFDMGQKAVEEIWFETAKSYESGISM

extended human kinome (kinase-like proteins) (Homo sapiens, UniProt Q9NYY8), sequence (Q9NYY8 whole entry): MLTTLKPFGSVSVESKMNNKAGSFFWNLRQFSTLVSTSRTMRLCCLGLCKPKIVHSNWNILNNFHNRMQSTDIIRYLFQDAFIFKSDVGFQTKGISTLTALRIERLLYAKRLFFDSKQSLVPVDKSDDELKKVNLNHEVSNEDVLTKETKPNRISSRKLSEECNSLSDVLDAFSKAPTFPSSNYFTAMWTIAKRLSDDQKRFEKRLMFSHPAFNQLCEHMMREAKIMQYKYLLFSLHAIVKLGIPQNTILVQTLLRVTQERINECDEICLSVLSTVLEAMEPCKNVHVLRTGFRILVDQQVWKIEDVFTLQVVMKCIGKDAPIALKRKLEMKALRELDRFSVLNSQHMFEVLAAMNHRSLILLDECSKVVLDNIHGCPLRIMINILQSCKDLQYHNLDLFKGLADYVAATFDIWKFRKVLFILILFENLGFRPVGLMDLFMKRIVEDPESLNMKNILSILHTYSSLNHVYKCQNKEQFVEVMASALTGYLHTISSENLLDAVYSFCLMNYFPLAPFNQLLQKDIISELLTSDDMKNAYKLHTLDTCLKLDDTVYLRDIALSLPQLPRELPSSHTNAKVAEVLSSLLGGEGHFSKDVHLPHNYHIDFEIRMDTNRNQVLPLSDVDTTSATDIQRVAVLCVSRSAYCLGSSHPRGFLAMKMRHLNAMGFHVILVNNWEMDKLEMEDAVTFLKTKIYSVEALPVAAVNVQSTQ
protein kinases (human kinome) (Homo sapiens, UniProt Q16760), sequence (Q16760 whole entry): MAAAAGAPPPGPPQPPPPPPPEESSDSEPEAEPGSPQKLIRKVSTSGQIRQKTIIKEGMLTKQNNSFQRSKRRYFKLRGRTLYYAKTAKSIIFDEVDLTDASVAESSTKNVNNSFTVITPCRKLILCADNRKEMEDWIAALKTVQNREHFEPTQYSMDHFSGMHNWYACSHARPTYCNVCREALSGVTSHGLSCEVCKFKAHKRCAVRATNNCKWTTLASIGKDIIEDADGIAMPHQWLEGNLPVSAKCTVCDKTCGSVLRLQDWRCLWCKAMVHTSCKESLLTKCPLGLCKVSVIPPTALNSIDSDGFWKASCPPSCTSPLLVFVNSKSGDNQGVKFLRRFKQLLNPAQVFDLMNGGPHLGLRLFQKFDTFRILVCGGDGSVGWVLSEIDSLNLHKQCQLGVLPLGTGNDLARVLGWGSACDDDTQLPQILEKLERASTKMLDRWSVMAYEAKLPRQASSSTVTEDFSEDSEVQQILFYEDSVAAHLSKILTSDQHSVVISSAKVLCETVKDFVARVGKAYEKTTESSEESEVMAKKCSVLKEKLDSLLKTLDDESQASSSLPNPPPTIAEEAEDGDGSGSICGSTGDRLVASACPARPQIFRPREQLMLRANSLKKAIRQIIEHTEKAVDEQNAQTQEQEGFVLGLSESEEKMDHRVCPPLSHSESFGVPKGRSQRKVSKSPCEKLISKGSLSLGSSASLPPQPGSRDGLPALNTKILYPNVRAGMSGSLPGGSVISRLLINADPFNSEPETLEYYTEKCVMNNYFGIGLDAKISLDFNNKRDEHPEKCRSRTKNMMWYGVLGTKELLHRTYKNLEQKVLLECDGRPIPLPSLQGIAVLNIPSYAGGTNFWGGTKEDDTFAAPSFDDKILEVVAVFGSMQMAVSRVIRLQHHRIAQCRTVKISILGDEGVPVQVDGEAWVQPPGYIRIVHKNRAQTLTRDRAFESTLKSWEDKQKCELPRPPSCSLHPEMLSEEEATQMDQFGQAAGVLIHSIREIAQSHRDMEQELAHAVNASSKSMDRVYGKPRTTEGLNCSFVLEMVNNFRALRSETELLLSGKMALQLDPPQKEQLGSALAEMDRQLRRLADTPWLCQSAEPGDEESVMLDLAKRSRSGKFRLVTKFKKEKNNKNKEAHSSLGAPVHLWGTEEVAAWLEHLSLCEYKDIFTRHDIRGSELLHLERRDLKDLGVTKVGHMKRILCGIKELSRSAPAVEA

## CC(C)S(=O)(=O)c1ccccc1Nc1nc(Nc2ccc(N3CCN(CCOCCNC(=O)CNc4cccc5c4C(=O)N(C4CCC(=O)NC4=O)C5=O)CC3)cc2)ncc1Cl (stereo not drawn) [SK-3-91]
MOLT-4 cells; 8- and 12-h time points
  transcript levels: complete transcriptional collapse
MOLT-4 cells; up until the 4-h time point
  transcript levels: largely unchanged

## Cc1ccc(NC(=O)c2cccc(C(F)(F)F)c2)cc1N1Cc2cnc(Nc3ccc(N4CCN(Cc5cn(CCCCCOc6cccc7c6C(=O)N(C6CCC(=O)NC6=O)C7=O)nn5)CC4)nc3)nc2N(C)C1=O (stereo not drawn) [DB0646, N-(3-(7-((6-(4-((1-(5-((2-(2,6-Dioxopiperidin-3-yl)-1,3-dioxoisoindolin-4-yl)oxy)pentyl)-1H-1,2,3-triazol-4-yl)methyl)piperazin-1-v)pyridin-3-yl)amino)-1-methyl-2-oxo-1,4-dihydropyrimido[4,5-d]pyrimidin-3(2H)-yl)-4-methylphenyl)-3-(trifluoromethyl)benzamide]
[1]
  logFC PFKFB3: −0.377
[2]
  CSK degradation rescue on p97 inhibition: very little degradation rescue

## Cc1ccc(NC(=O)c2cccc(C(F)(F)F)c2)cc1N1Cc2cnc(Nc3ccc(N4CCN(CCCCCCOc5cccc6c5C(=O)N(C5CCC(=O)NC5=O)C6=O)CC4)nc3)nc2N(C)C1=O (stereo not drawn) [DB0663]
[3]
  logFC DGKD: −0.5955

## CC(C)S(=O)(=O)c1ccccc1Nc1nc(Nc2ccc(N3CCN(CCOCCNC(=O)CNc4cccc5c4C(=O)N(C4CCC(=O)NC4=O)C5=O)CC3)cc2)ncc1Cl (stereo not drawn) [SK.3.91]
[4]
  logFC FASTKD2: −1
[5]; EPHB2 (P29323), experiment wp107
  logFC: −0.6293
[5]; Experiment wp107
  logFC of EPHB2 (P29323): −0.6293

## Cc1ncsc1-c1ccc([C@H](C)NC(=O)[C@@H]2C[C@@H](O)CN2C(=O)[C@@H](NC(=O)CCCCCN2CCN(c3ccc(Nc4ncc5scc(-c6cccc(NS(C)(=O)=O)c6)c5n4)cc3)CC2)C(C)(C)C)cc1 [RSS0680, (2S,4R)-1-((S)-3,3-Dimethyl-2-(6-(4-(4-((7-(3-(methylsulfonamido)phenyl)thieno[3,2-d]pyrimidin-2-yl)amino)phenyl)piperazin-1-yl)hexanamido)butanoyl)-4-hydroxy-N—((S)-1-(4-(4-methylthiazol-5yl)phenyl)ethyl)pyrrolidine-2-carboxamide]
[6]
  logFC HYKK: −0.3476

— US20240269139A1, “COMPOUNDS FOR TARGETED PROTEIN DEGRADATION OF KINASES” (DANA-FARBER CANCER INSTITUTE, INC., priority 2020, published 2024)
